These results are taken from patent US20210395210A1, “INHIBITION OF BACTERIAL CHAPERONIN SYSTEMS” (THE TRUSTEES OF INDIANA UNIVERSITY, priority 2018, published 2021).

Assay [1] addresses T1, human HSP60/10 (Homo sapiens, UniProt P10809).
T1 construct: octa-Histidine tag (TEV-cleavable) (N, cleaved yes); made in house; host or cells: HSP60 in E. coli Rosetta 2 (DE3); HSP10 in Rosetta 2 (DE3) pLysS
Put plainly: HSP60/10-mediated dMDH refolding assay. In kind it is biochemical. On the procedure:
Reagent preparation: For these assays, four primary reagent stocks were prepared: 1) GroEUES-dMDH or HSP60/10-dMDH binary complex stock; 2) ATP initiation stock; 3) EDTA quench stock; 4) MDH enzymatic assay stock. Denatured MDH (dMDH) was prepared by 2-fold dilution of MDH (5 mg/ml, soluble pig heart MDH from Roche, product #10127248001) with denaturant buffer (7 M guanidine-HCl, 200 mM Tris, pH 7.4, and 50 mM DTT). MDH was completely denatured by incubating at room temperature for 45 min. The binary complex solutions were prepared by slowly adding the dMDH stock to a stirring stock with GroEL (or HSP60) in folding buffer (50 mM Tris-HCl, pH 7.4, 50 mM KCl, 10 mM MgCl2, and 1 mM DTT), followed by addition of GroES (or HSP10). The binary complex stocks were prepared immediately prior to dispensing into the assay plates and had final protein concentrations of 83.3 nM GroEL (Mr 800 kDa) or HSP60 (Mr 400 kDa), 100 nM GroES or HSP10 (Mr 70 kDa), and 20 nM dMDH in folding buffer. For the ATP initiation stock, ATP solid was diluted into folding buffer to a final concentration of 2.5 mM. Quench solution contained 600 mM EDTA (pH 8.0). The MDH enzymatic assay stock consisted of 20 mM sodium mesoxalate and 2.4 mM NADH in reaction buffer (50 mM Tris-HCl, pH 7.4, 50 mM KCl, and 1 mM DTT).
Assay Protocol: First, 30 μL aliquots of the GroEL/ES-dMDH or HSP60/10-dMDH binary complex stocks were dispensed into clear, 384-well polystyrene plates. […] The chaperonin-mediated refolding cycles were initiated by addition of 20 μL of ATP stock (reagent concentrations during refolding cycle: 50 nM GroEL or HSP60, 60 nM GroES or HSP10, 12 nM dMDH, 1 mM ATP, and compounds of 100 μM to 46 nM, 3-fold dilution series). The refolding reactions were incubated at 37° C. […] Next, the assay was quenched by addition of 10 μL of the EDTA to final concentration of 100 mM. […] A340 nm measurements were recorded at 0.5 minutes (start point) and at successive time points until the amount of NADH consumed reached ˜90% (end point, generally between 20-35 minutes). The differences between the start and end point A340 values were used to calculate the % inhibition of the GroEL/ES or HSP60/10 machinery by the compounds. […] Results presented represent the averages of IC50 values obtained from at least quadriplicate (duplicate of duplicate) replicates.

The test system of assay [2] is Acinetobacter baumannii (ATCC 19606). The experiment in a line: Bacterial proliferation assay, A. baumannii. In kind it is cell-based. From the text: Bacterial Strains: Enterococcus faecium—(Orla-Jensen) Schleifer and Kilpper-Balz strain NCTC 7171 (ATCC 19434); Drug sensitive Staphylococcus aureus—Rosenbranch strain Seattle 1945 (ATCC 25923); Methicillin resistant S. aureus (MRSA)—Rosenbach strain HPV107 (ATCC BAA-44); Klebsiella Pneumonia—(Schroeter) Trevisan strain NCTC 9633 (ATCC 13883); Acinetobacter baumannii—Bouvet and Grimont strain 2208 (ATCC 19606); Pseudomonas aeruginosa—(Schroeter) Migula strain NCTC 10332 (ATCC 10145); Enterobacter cloacae—E. cloacae, subsp. cloacae (Jordan) Hormaeche and Edwards strain CDC 442-68 (ATCC 13047).
Growth Media: All bacteria were grown in Brain Heart Infusion (BHI) broth/agar (Becton, Dickinson and Company). All liquid cultures were grown in BHI media supplemented with 25 mg/L Ca^2+ and 12.5 mg/L Mg^2+ to mimic free physiological concentrations of these cations. A 10 mg/mL Ca^2+ stock solution was prepared by dissolving 3.68 g of CaCl2.2H2O in 100 mL of deionized water, and a 10 mg/mL Mg^2+ stock solution was prepared by dissolving 8.36 g of MgCl2.6H2O in 100 mL deionized water. Both stock solutions were filter-sterilized using 0.2 μm pore size cellulose-acetate filters. 2.5 mL of the sterile 10 mg/mL Ca^2+ stock and 1.25 mL of the sterile 10 mg/mL Mg^2+ stock solutions were added per 1 L of autoclaved BHI medium to obtain 25 mg/L Ca^2+ and 12.5 mg/L Mg^2+ ions, respectively.
General Assay Protocol: Stock bacterial cultures were streaked onto BHI agar plates and grown overnight at 37° C. Fresh aliquots of broth were inoculated with single bacterial colonies and the cultures were grown overnight at 37° C. with shaking (240 rpm) in cation adjusted BHI media. The following morning, the overnight cultures were sub-cultured (1:5 dilution) into fresh aliquots of cation adjusted BHI media and grown at 37° C. for 1-2 hours with shaking. After 2 h, cultures were diluted into fresh media to achieve final OD600 readings of 0.017. Aliquots of these diluted cultures (30 μL) were added to clear, flat-bottom, 384-well polystyrene plates that were stamped with 0.5 μL of test compounds in 20 μL media. […] Plates were sealed with “Breathe Easy” oxygen permeable membranes (Diversified Biotech) and left to incubate at 37° C. without shaking (stagnant assay). OD600 nm readings were taken at either 6-8 h (S. aureus, MRSA, K. pneumonia, E. cloacae, and P. aeruginosa) or 24 h (E. faecium and A. baumannii). A second set of baseline control plates were prepared analogously, but without any bacteria added, to correct for possible compound absorbance and/or precipitation. Plates were then read at 600 nm using a Molecular Devices SpectraMax Plus384 microplate reader. […] Results presented represent the averages of EC50 values obtained from at quadriplicate (duplicate of duplicate) replicates.

Setting [3] is: human HSP60/10-dMDH refolding assay, read-out: HSP60/10-dMDH Refolding IC50.
Where [4] appears, read: log(IC50) ± standard deviation, human HSP60/10-dMDH refolding assay, read-out: HSP60/10-dMDH Refolding Assay log(IC50) (converted).
The mark [5] stands for this setting: ATCC19606, OD600 at 24 h, read-out: Bacterial Proliferation EC50 A. baumannii.
Where [6] appears, read: ATCC19606, log of EC50 (μM scale), with standard deviation, read-out: log(EC50) Bacterial Proliferation Assay A. baumannii (converted).
Where [7] appears, read: ATCC19606, 24 h, read-out: Bacterial Proliferation EC50 A. baumannii.
[8] abbreviates: ATCC19606, read-out: log(EC50) Bacterial Proliferation Assay A. baumannii (converted).

Like-named read-outs stand apart in the source and are kept apart here.

T1 sequence (P10809 27-573): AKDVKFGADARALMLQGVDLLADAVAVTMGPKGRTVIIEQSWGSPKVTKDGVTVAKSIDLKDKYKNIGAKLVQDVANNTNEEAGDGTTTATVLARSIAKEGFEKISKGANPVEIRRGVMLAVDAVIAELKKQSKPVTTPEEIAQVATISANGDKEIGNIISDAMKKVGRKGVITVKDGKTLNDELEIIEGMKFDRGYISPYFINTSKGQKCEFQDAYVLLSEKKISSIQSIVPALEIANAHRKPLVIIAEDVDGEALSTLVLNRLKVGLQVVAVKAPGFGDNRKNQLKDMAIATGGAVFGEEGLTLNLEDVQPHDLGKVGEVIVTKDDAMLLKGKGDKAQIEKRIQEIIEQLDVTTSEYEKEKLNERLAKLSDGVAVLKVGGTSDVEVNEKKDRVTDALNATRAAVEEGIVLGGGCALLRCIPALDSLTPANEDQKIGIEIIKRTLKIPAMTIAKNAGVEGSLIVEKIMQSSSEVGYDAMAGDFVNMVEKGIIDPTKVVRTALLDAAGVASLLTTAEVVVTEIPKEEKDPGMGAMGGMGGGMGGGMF

Regarding `COc1ccc(Br)cc1C(=O)Nc1cccc(Cl)c1` [Compound 39, 5-Bromo-N-(3-chlorophenyl)-2-methoxybenzamide], the IC50 in assay [1] (setting [3]) and in assay [1] (setting [4]) was more than 100 µM throughout. Also, the EC50 in assay [2] (setting [5]) and in assay [2] (setting [6]) was more than 100 µM in each case.

On to `O=C(Nc1ccc(Sc2nc3ccccc3s2)c(Cl)c1)c1ccccc1` [Compound 19, N-(4-(Benzo[d]thiazol-2-ylthio)-3-chlorophenyl)benzamide], for which the IC50 in assay [1] (setting [3]) and in assay [1] (setting [4]) was more than 100 µM each time. The EC50 in assay [2] (setting [5]) and in assay [2] (setting [6]) was more than 100 µM in each case.

Take `COc1ccccc1C(=O)Nc1ccc(Sc2nc3ccccc3s2)c(Cl)c1` [Compound 32, N-(4-(Benzo[d]thiazol-2-ylthio)-3-chlorophenyl)-2-methoxybenzamide]: the IC50 in assay [1] (setting [3]) and in assay [1] (setting [4]) was more than 100 µM each time. In addition, the EC50 in assay [2] (setting [5]) and in assay [2] (setting [6]) was more than 100 µM in each case.

Regarding `O=C(Nc1ccc(Sc2nc3ccccc3s2)cc1)c1cc(Br)ccc1O` [Compound 7, N-(4-(Benzo[d]thiazol-2-ylthio)phenyl)-5-bromo-2-hydroxybenzamide], the IC50 in assay [1] (setting [3]) and in assay [1] (setting [4]) was more than 100 µM in each case. Besides, the EC50 in assay [2] (setting [7]) and in assay [2] (setting [8]) was more than 100 µM in each case.

As to `O=C(Nc1ccc(Sc2nc3ccccc3s2)cc1)c1cc(Br)cc(Br)c1` [Compound 20, N-(4-(Benzo[d]thiazol-2-ylthio)phenyl)-3,5-dibromobenzamide], the IC50 in assay [1] (setting [3]) and in assay [1] (setting [4]) was more than 100 µM throughout. For the same compound, the EC50 in assay [2] (setting [5]) and in assay [2] (setting [6]) was more than 100 µM throughout.

For `O=C(Nc1ccc(Sc2nc3ccccc3s2)cc1)c1ccccc1` [Compound 22, N-(4-(Benzo[d]thiazol-2-ylthio)phenyl)benzamide], the IC50 in assay [1] (setting [3]) and in assay [1] (setting [4]) was more than 100 µM in each case. The EC50 in assay [2] (setting [5]) and in assay [2] (setting [6]) was more than 100 µM throughout.

As for `COc1c(Br)cc(Br)cc1C(=O)Nc1ccc(Sc2nc3ccccc3s2)cc1` [Compound 33, N-(4-(Benzo[d]thiazol-2-ylthio)phenyl)-3,5-dibromo-2-methoxybenzamide], the IC50 in assay [1] (setting [3]) and in assay [1] (setting [4]) was more than 100 µM throughout. The EC50 in assay [2] (setting [5]) and in assay [2] (setting [6]) was more than 100 µM in each case.

As for `CN[C@H](CC(C)C)C(=O)N[C@H]1C(=O)N[C@@H](CC(N)=O)C(=O)N[C@H]2C(=O)N[C@H]3C(=O)N[C@H](C(=O)N[C@H](C(=O)O)c4cc(O)cc(O)c4-c4cc3ccc4O)[C@H](O)c3ccc(c(Cl)c3)Oc3cc2cc(c3O[C@@H]2O[C@H](CO)[C@@H](O)[C@H](O)[C@H]2O[C@H]2C[C@](C)(N)[C@H](O)[C@H](C)O2)Oc2ccc(cc2Cl)[C@H]1O` [Vancomycin, vancomycin, reference compound], the IC50 in assay [1] was more than 100 µM. Further, the “HSP60/10-dMDH Refolding Assay log(IC50)” value in assay [1] (log(IC50) ± standard deviation, human HSP60/10-dMDH refolding assay) is more than 2. For the same compound, the EC50 in assay [2] (setting [7]) and in assay [2] (setting [8]) was more than 100 µM throughout.

For the compound `O=C(Nc1cccc(Cl)c1)c1ccccc1O` [Compound 12, N-(3-Chlorophenyl)-2-hydroxybenzamide], the IC50 in assay [1] (setting [3]) and in assay [1] (setting [4]) was more than 100 µM each time. Also, the EC50 in assay [2] (setting [5]) and in assay [2] (setting [6]) was more than 100 µM throughout.

Turning to `COc1ccccc1C(=O)Nc1ccccc1` [Compound 44, 2-Methoxy-N-phenylbenzamide], the IC50 in assay [1] (setting [3]) and in assay [1] (setting [4]) was more than 100 µM throughout. Besides, the EC50 in assay [2] (setting [5]) and in assay [2] (setting [6]) was more than 100 µM each time.

In the case of `COc1c(Br)cc(Br)cc1C(=O)Nc1ccc(Sc2nc3ccccc3s2)c(Cl)c1` [Compound 29, N-(4-(Benzo[d]thiazol-2-ylthio)-3-chlorophenyl)-3,5-dibromo-2-methoxybenzamide], the IC50 in assay [1] (setting [3]) and in assay [1] (setting [4]) was more than 100 µM in each case. Further, the EC50 in assay [2] (setting [5]) and in assay [2] (setting [6]) was more than 100 µM in each case.

As for `COc1c(Br)cccc1C(=O)Nc1ccc(Sc2nc3ccccc3s2)c(Cl)c1` [Compound 30, N-(4-(Benzo[d]thiazol-2-ylthio)-3-chlorophenyl)-3-bromo-2-methoxybenzamide], the IC50 in assay [1] (setting [3]) and in assay [1] (setting [4]) was more than 100 µM in each case. Moreover, the EC50 in assay [2] (setting [5]) and in assay [2] (setting [6]) was more than 100 µM each time.

For the compound `O=C(Nc1ccccc1)c1cc(Br)cc(Br)c1O` [Compound 13, 3,5-Dibromo-2-hydroxy-N-phenylbenzamide], the IC50 was 63 µM in assay [1] (setting [3]) and 63.1 µM in assay [1] (setting [4]). For the same compound, the EC50 in assay [2] (setting [7]) and in assay [2] (setting [8]) was more than 100 µM each time.

`O=C(Nc1ccc(Sc2nc3ccccc3s2)c(Cl)c1)c1cc(Br)cc(Br)c1` [Compound 17, N-(4-(Benzo[d]thiazol-2-ylthio)-3-chlorophenyl)-3,5-dibromobenzamide]: the IC50 in assay [1] (setting [3]) and in assay [1] (setting [4]) was more than 100 µM in each case. Moreover, the EC50 in assay [2] (setting [5]) and in assay [2] (setting [6]) was more than 100 µM each time.

Regarding `O=C(Nc1ccc(Sc2nc3ccccc3s2)cc1)c1cccc(Br)c1O` [Compound 6, N-(4-(Benzo[d]thiazol-2-ylthio)phenyl)-3-bromo-2-hydroxybenzamide], the values for the IC50 in assay [1] (setting [3]) and in assay [1] (setting [4]) were 26 µM and 25.7 µM, respectively. Besides, the results for the EC50 in assay [2] (setting [7]) and in assay [2] (setting [8]) were 12 µM and 11.5 µM, respectively.

`COc1ccccc1C(=O)Nc1cccc(Cl)c1` [Compound 40, N-(3-Chlorophenyl)-2-methoxybenzamide]: the IC50 in assay [1] (setting [3]) and in assay [1] (setting [4]) was more than 100 µM throughout. In addition, the EC50 in assay [2] (setting [5]) and in assay [2] (setting [6]) was more than 100 µM each time.

For the compound `CC1(C)S[C@@H]2[C@H](NC(=O)[C@H](N)c3ccccc3)C(=O)N2[C@H]1C(=O)O` [Ampicillin, ampicillin, reference compound], the IC50 in assay [1] (setting [3]) and in assay [1] (setting [4]) was more than 100 µM in each case. The EC50 in assay [2] (setting [5]) and in assay [2] (setting [6]) was more than 100 µM each time.
